Results from US12691119B2, “Methods for treating covid-19 with sepiapterin” (PTC Therapeutics MP, Inc., priority 2021, dated 2026).

Assays:
[1] = test system: OT-I cells; assay: OT-I splenocyte transfer with ova peptide-pulsed BMDCs; proliferation and IFN-γ by flow cytometry; format: in vivo, C57/B16 mice; conditions: mice
Experimental: FIG. 3A is a graph showing the proliferation and activation of CD8^+ T cells in the presence of sepiapterin in vivo.
FIG. 3B is a graph showing cytokine (IFN-γ) expression in cells in the presence of sepiapterin in vivo.
2×10^6 OT-I splenocytes were injected into C57/B16 mice via tail vein injection. 24 hours later, 1×10^6 ova peptide-pulsed bone marrow derived dendritic cells were injected into these mice subcutaneously. Starting on day 3, mice were given 10 mg/kg SP orally for 3 consecutive days. On day 6, mice were sacrificed and spleens were harvested and stimulated for 6 hours with brefeldin A (BFA), phorbol myristate acetate (PMA), and ionomycin. OT-I proliferation (FIG. 3A) and IFN-γ expression (FIG. 3B) were assessed via flow cytometry.

[2] = healthy volunteers and subjects with Phenylketonuria, Primary BH4 Deficiencies, or diabetic gastroparesis; cited from earlier work
[3] = test system: cytokine expression in the lungs; assay: Intranasal LPS model of ARDS, cytokine expression in BAL fluid by ELISA; format: in vivo; conditions: mice, 10 mg/kg per day oral gavage for 3 days, then 40 ug LPS intranasally; BAL 16-18 hours later; FIG. 1
Experimental: FIG. 1 is a graph showing cytokine expression in the lungs of mice treated with intranasal lipopolysaccharide (LPS) with or without 10 mg/kg sepiapterin (SP) treatment.
This is in line with the therapeutic effect of SP in a Dextran Sulfate Sodium//Azoxymethane model of colitis/colon cancer.
Mice were treated with either 10 mg/kg sepiapterin (SP) per day delivered via oral gavage or nothing for 3 days. Mice were then treated with 40 ug lipopolysaccharide (LPS) inhaled intranasally. 16-18 hours later, bronchoalveolar lavage (BAL) fluid was collected and assess for cytokine expression via ELISA. Untreated (UT) (n=1), LSP (n=3), LSP+SP (n=2). (FIG. 1).

[4] = Stability on exposure to air; format: physicochemical; conditions: exposed to air
Description: Accordingly, pharmaceutical compositions of the invention may include antioxidants. The antioxidant may minimize the oxidative degradation of sepiapterin. […]

[5] = test system: innate immune cell mediated inflammation in the colon; conditions: caused by DSS in the colon, preclinical models; cited from earlier work
[6] = test system: CD8+ T cells (pmel splenocytes); assay: CFSE-labeled pmel splenocytes co-cultured with gp100-pulsed BMDCs; CFSE dilution by flow cytometry, cytokines by ELISA; format: cell-based; conditions: in vitro
Description: FIG. 2A is a graph showing the proliferation and activation of CD8^+ T cells in the presence of sepiapterin in vitro.
FIG. 2B is a graph showing cytokine (interferon gamma, IFN-γ) expression in cells in the presence of sepiapterin in vitro.
FIG. 2C is a graph showing cytokine (interleukin 2, IL-2) expression in cells in the presence of sepiapterin in vitro.
1×10^5 pmel splenocytes were labeled with carboxyfluorescein succinimidyl ester (CFSE) and then co-cultured, at either a 1:10 or 1:40 ratio (splenocytes:BMDC), with gp100-pulsed bone marrow derived dendritic cells (BMDCs) for 3 days. Sepiapterin (SP) was added after BMDCs were added to splenocytes. After incubation, CFSE dilution was measured via flow cytometry (FIG. 2A) and cytokine expression was measured via ELISA (FIGS. 2B and 2C). No DC=no dendritic cells, UT=untreated. […] The enhanced secretion of IFN-γ in FIG. 2B is a result of the higher number of T cells present in wells treated with SP.

Compound: C[C@H](O)C(=O)C1=Nc2c(nc(N)[nH]c2=O)NC1 [sepiapterin, (S)-2-amino-6-(2-hydroxypropanoyl)-7,8-dihydropteridin-4(3H)-one]
- OT-I proliferation ([1]; 10 mg/kg orally for 3 consecutive days from day 3, spleens day 6, FIG. 3A): enhanced proliferation of OT-I cells
- T cell activation and IFN-γ secretion ([1]; 10 mg/kg orally for 3 consecutive days, spleens stimulated 6 hours with BFA, PMA, ionomycin, FIG. 3B): minimal effect on T cell activation and IFN-γ secretion
- tolerability [2]: well tolerated
- cytokine expression in bronchoalveolar lavage (BAL) fluid [3]: lower levels of cytokine expression
- oxidation stability [4]: prone to rapid oxidation when exposed to air
- innate immune cell mediated inflammation [5]: profoundly suppress innate immune cell mediated inflammation
- proliferation of CD8+ T cells (CFSE dilution) ([6]; 3 days co-culture, 1:10 or 1:40 splenocytes:BMDC, FIG. 2A): enhanced proliferation of anti-viral CD8^+ T cells in a dose dependent manner
- T cell activation and IFN-γ secretion ([6]; ELISA, FIGS. 2B and 2C): without directly affecting T cell activation and IFN-γ secretion
